The target of test [1] is T1, Fructose-bisphosphate aldolase (Helicobacter pylori (strain ATCC 700392 / 26695), UniProt P56109).
T1 sequence (P56109 whole entry): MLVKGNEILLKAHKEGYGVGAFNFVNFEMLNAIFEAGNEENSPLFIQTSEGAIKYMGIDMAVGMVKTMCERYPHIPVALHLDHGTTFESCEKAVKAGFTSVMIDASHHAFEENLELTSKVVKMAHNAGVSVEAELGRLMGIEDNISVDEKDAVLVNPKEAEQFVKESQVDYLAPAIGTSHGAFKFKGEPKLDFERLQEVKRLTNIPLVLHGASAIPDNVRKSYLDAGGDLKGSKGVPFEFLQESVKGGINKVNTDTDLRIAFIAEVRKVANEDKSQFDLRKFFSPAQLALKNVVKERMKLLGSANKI
Kind of test: Inhibition of Helicobacter pylori recombinant zinc dependent class 2 Fba expressed in Escherichia coli JM109.

Test [2] concerns the target T2, Fructose-bisphosphate aldolase (Candida albicans (strain SC5314 / ATCC MYA-2876), UniProt Q9URB4).
T2 sequence (Q9URB4 whole entry): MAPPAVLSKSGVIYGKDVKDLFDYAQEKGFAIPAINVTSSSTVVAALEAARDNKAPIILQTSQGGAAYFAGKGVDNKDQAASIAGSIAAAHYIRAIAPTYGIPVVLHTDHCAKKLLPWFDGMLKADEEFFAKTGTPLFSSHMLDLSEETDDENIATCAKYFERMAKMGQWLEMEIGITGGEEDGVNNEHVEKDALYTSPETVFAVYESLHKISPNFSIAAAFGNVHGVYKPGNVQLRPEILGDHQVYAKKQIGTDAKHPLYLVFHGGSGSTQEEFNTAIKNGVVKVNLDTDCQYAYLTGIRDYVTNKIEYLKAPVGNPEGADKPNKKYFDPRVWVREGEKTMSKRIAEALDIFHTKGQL
The test is described as follows: Inhibition of Candida albicans zinc dependent class 2 Fba.

The target of test [3] is T3, Fructose-bisphosphate aldolase A (Oryctolagus cuniculus, UniProt P00883).
T3 sequence (P00883 whole entry): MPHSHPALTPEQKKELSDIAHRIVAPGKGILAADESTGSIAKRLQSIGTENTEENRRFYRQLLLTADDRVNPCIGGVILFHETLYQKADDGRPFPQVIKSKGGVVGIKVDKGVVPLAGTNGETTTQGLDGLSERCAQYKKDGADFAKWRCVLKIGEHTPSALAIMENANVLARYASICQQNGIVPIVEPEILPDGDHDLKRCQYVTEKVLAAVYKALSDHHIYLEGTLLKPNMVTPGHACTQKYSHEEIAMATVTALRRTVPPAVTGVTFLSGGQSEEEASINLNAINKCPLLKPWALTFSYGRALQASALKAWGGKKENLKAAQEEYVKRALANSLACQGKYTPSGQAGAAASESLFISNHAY
Kind of test: Inhibition of rabbit muscle […] class 1 Fba expressed in Escherichia coli.

pKi: −log10 of the molar value.

Take `O=C([C@H](O)COP(=O)(O)O)[C@H](O)C(O)COP(=O)(O)O` (stereo partly drawn) [1,6-di-O-phosphono-D-fructose]: the values for the negative-log Ki (pKi) in test [1], in test [2] and in test [3] were 4.77, 4.07 and 4.82, respectively.

`CCCCCC(=O)OCCCCN(O)C(=O)COP(=O)(O)O` [4-(N-hydroxy-2-(phosphonooxy)acetamido)butyl hexanoate] showed a pKi in test [3] of 3.07.

Values taken from BindingDB's records for doi:10.1021/jm1009814 (Paris-Sud University, 2010).
